Read-outs that look alike come from different tables or passages of the source.
Columns and labels:
[1] = test system: Hep G2; test: MTT cytotoxicity assay on Hep G2 cell line; assay type: cell-based; details: human, 24 h
Description: (§1) To determine whether the anti-inflammatory activity of the test compounds was due to observed inhibition of cytokine production and inhibition of proliferation in vitro, and was not a consequence of cellular cytotoxicity, measurement of succinate dehydrogenase activity in living cells was performed. Cells were cultured for 24 h in RPMI medium as described above at 37° C. in the presence of the test compounds at concentrations of 50 μM and 12.5 μM. MTT [3-(4,5-dimethylthiazole-2-yl)-2,5-diphenyl tetrazolium bromide] (Promega, USA), a detection reagent, was then added and the cultures were incubated for 0.5-2 h. The amount of MTT-Formazan produced was determined using a spectrophotometer at 490 nm (Mosmann, J. Imnunol. Methods, 1983, 65: 55-63). Percentage of viable cells was calculated using the following formula:
(§2) % viable cells=([…]OD490 treated cells/OD490 nontreated cells)×100

[2] = test system: IL-1α; test: Inhibition of IL-1 production by stimulated human peripheral blood leukocytes in vitro; assay type: cell-based; details: Homo sapiens, Leukocyte, PBL, read-out: Percentage of inhibition of IL-1α production; for inhibition at 10 µM: compound 10 μM; for inhibition at 50 µM: compound 50 μM
[3] = test system: IL-8; test: Inhibition of IL-8 production by stimulated human peripheral blood leukocytes in vitro; assay type: cell-based; details: Homo sapiens, Leukocyte, PBL, read-out: Percentage of inhibition of IL-8 production; for inhibition at 10 µM: compound 10 μM; for inhibition at 50 µM: compound 50 μM
Description: (§3) Test substances used in in vitro experiments were dissolved in dimethyl sulfoxide (DMSO) (Kemika, Croatia) at concentrations of 50 mM and 10 mM, and were further diluted to final concentrations of 50 μM and 10 μM in 1 mL Dulbecco's modified Eagle medium (DMEM) supplemented with 1% heat inactivated fetal bovine serum (FBS), 1% L-glutamine, 50 U/ml penicillin, 50 μg/ml streptomycin and 2.5 μg/mL Fungizone (amphotericin B). Media and all media supplements were purchased from Gibco, Australia, except the FBS was purchased from Sigma, USA.
(§4) Peripheral blood leukocytes (PBL) were obtained from venous blood of healthy volunteers by sedimentation on 2% dextran T-500 (Amersham Biosciences, USA) and subsequent centrifugations of leukocyte rich plasma.
(§5) Peripheral blood leukocytes (PBL), isolated as described above, were seeded in a 48-well plate at a concentration of 3 to 5×10^6 cell per well in culture medium consisting of RPMI 1640 medium (Institute of Immunology, Croatia) supplemented with 10% heat-inactivated fetal calf serum (FCS, Biowhittaker, USA), 100 U/ml penicillin (Gibco, Australia), 100 μg/ml streptomycin (Gibco, Australia) and 2 mM L-glutamine (Gibco, Australia), and preincubated with the test compounds for 2 h at 37° C., in an atmosphere of 5% CO2, and 90% humidity. Then, stimuli (Sigma, USA) were added to a final concentration of 2 μg/mL lipopolysaccharide (LPS), 1 μg/mL phorbol 12-myristate 13-acetate (PMA) or 120 μg/mL zymosan. Samples were incubated overnight under conditions described above. At the end of incubation, the supernatants were transferred to eppendorf tubes and centrifuged for 10 min at 1500×g. Concentrations of human TNF-α, IL-1β, IL-6 and IL-8 were determined in cell supernatants by sandwich ELISA, using capture and detection antibodies (R&D Systems, Minneapolis, Minn.) according to the manufacturer's recommendations.
(§6) Inhibition (as percentage) was calculated using the following formula: % inhibition=(1−concentration of cytokines in sample/concentration of cytokines in positive control)×100. The positive control refers to stimulated samples, not treated with substances.

[4] = test system: A549; test: MTT cytotoxicity assay on A549 cell line; assay type: cell-based; details: human, 24 h
Description: as §1, §2

[5] = test system: IL-6; test: Inhibition of IL-6 production by stimulated human peripheral blood leukocytes in vitro; assay type: cell-based; details: Homo sapiens, Leukocyte, PBL, read-out: Percentage of inhibition of IL-6 production; for inhibition at 10 µM: compound 10 μM; for inhibition at 50 µM: compound 50 μM
Description: as §3, §4, §5, §6

[6] = test system: TNF-α; test: Inhibition of TNF-α production by stimulated human peripheral blood leukocytes in vitro; assay type: cell-based; details: Homo sapiens, Leukocyte, PBL, read-out: Percentage of inhibition of TNF-α production; for inhibition at 10 µM: compound 10 μM; for inhibition at 50 µM: compound 50 μM
Description: as §3, §4, §5, §6

[7] = test system: granulocytes; test: Inhibition of degranulation of granulocytes (elastase release); assay type: cell-based, human; details: Homo sapiens, compound 50 μM, read-out: Percentage of inhibition of degranulation of granulocytes
Description: (§7) Granulocytes were obtained from heparinized whole blood using density gradient centrifugation. Erythrocytes were sedimented on 3% dextran T-500 (Amersham Pharmacia Biotech AB, Uppsala, Sweden). Leukocytes were centrifuged on Ficoll (Amersham Pharmacia Biotech AB, Uppsala, Sweden) for 35 min at 600 g at 20° C. The pellet of granulocytes was cleared from remaining erythrocytes by a brief hypotonic lysis.
1×10^6 granulocytes, isolated as described above, were resuspended in RPMI-1640 medium (Institute of Immunology, Croatia), and were incubated with 10 or 50 μM of test compound together with cytochalasine B (5 μg/mL) for 2 h at 37° C. Degranulation then was induced by the addition of 0.1 μM fMLP (Sigma, USA) or 0.5 μM A23187 (Calbiochem, USA). The activity of free neutrophil elastase was determined with a chromogenic substrate specific for human neutrophil elastase, such as n-methoxysuccinyl-1-alanyl-1-alanyl-1-prolyl-lvalyl-p-niytoanlide (Sigma Chemical Company, St Louis, Mo., USA) Elastase activity, as a marker of primary granules, was assessed in supernatant using a spectrophotometer at an absorbance of 405 nm. Results are expressed as the percent of inhibition of degranulation in unstimulated cells, and in stimulated cells treated with fMLP or A23187.

[8] = test system: human granulocytes; test: Oxidative burst inhibition assay on granulocytes (luminol); assay type: cell-based; details: Homo sapiens; for inhibition at 12.5 µM: compound 12.5 μM; for inhibition at 50 µM: compound 50 μM
Description: as §7
The effect of compounds on oxidative burst was investigated in vitro with oxidative burst assay in human granulocytes, isolated as described above. Assay was done in 96 well plate. Blood was obtained from healthy volunteers (Transfusion Center, Croatia) and human granulocytes were isolated by dextran sedimentation and ficoll extraction method, as described above. In each well 50000 isolated granulocytes were suspended in 100 μL of DMEM. Final concentrations of the tested compounds were 50 and 12.5 μM. Than, 50 μL of luminol (c=0.25 mg/mL) was added. Luminol as a detector of oxidative burst react with superoxide and light is produced as one of the reaction products. Subsequently, 50 μL of stimuli, phorbol-12-myristate acetate (PMA) (c=33 ng/mL) or Zymosan (c=120 μg/mL), were added.

[9] = PMA stimulated granulocytes, read-out: % inhibition of Oxidative burst PMA
[10] = Zymosan stimulated granulocytes, read-out: % inhibition of Oxidative burst Zymosan

Structure (SMILES)	Percentage of viable cells after treatment ([1]; 12.5 μM) [%]	Percentage of viable cells after treatment ([1]; 50 μM) [%]	inhibition at 10 µM ([2]; LPS stimulated) [%]	inhibition at 50 µM ([2]; LPS stimulated) [%]	inhibition at 10 µM ([2]; zymosan stimulated) [%]	inhibition at 50 µM ([2]; zymosan stimulated) [%]	inhibition at 10 µM ([3]; LPS stimulated) [%]	inhibition at 50 µM ([3]; LPS stimulated) [%]	inhibition at 10 µM ([3]; zymosan stimulated) [%]	inhibition at 50 µM ([3]; zymosan stimulated) [%]	Percentage of viable cells after treatment ([4]; 12.5 μM) [%]	Percentage of viable cells after treatment ([4]; 50 μM) [%]	inhibition at 10 µM ([5]; LPS stimulated) [%]	inhibition at 50 µM ([5]; LPS stimulated) [%]	inhibition at 10 µM ([5]; zymosan stimulated) [%]	inhibition at 50 µM ([5]; zymosan stimulated) [%]	inhibition at 10 µM ([6]; LPS stimulated) [%]	inhibition at 50 µM ([6]; LPS stimulated) [%]	inhibition at 10 µM ([6]; zymosan stimulated) [%]	inhibition at 50 µM ([6]; zymosan stimulated) [%]	further results
CC[C@H]1OC(=O)[C@H](C)[C@@H](O[C@H]2C[C@@](C)(OC)[C@@H](O)[C@H](C)O2)[C@H](C)[C@@H](O[C@@H]2O[C@H](C)C[C@H](N(C)C)[C@H]2O)[C@](C)(O)C[C@@H](C)CN(C(=O)Nc2ccc(C(F)(F)F)cc2)[C@H](C)[C@@H](O)[C@]1(C)O [Compound 9]	92	21	45	43	65	22	0	100	0	100	100	100	0	100	58	100	23	100	39	100	–
CC[C@H]1OC(=O)[C@H](C)[C@@H](O[C@H]2C[C@@](C)(OC)[C@@H](O)[C@H](C)O2)[C@H](C)[C@@H](O[C@@H]2O[C@H](C)C[C@H](N(C)C)[C@H]2O)[C@](C)(O)C[C@@H](C)CN(C(=O)NC(C)c2cccc3ccccc23)[C@H](C)[C@@H](O)[C@]1(C)O (stereo partly shown) [Compound 12]	93	8	52	82	80	100	15	100	40	100	94	72	6	100	88	100	28	100	70	100	–
CC[C@H]1OC(=O)[C@H](C)[C@@H](O[C@H]2C[C@@](C)(OC)[C@@H](O)[C@H](C)O2)[C@H](C)[C@@H](O[C@@H]2O[C@H](C)C[C@H](N(C)C)[C@H]2O)[C@](C)(O)C[C@@H](C)C(=O)[C@H](C)[C@@H](O)[C@]1(C)O [Erythromycin, erythromycin]	–	–	–	–	–	–	–	–	–	–	–	–	–	–	–	–	–	–	–	–	inhibition at 50 µM ([7]; A23187 0.5 μM stimulated): 0%; inhibition at 50 µM ([7]; fMLP 0.1 μM stimulated): 23%; inhibition at 12.5 µM [8, 9]: 0%; inhibition at 50 µM [8, 9]: 0%; inhibition at 12.5 µM [8, 10]: 6%; inhibition at 50 µM [8, 10]: 41%

— US20080200403A1, “9A-Carbamoyl and Thiocarbamoyl Azalides with Anti-Inflammatory Activity” (GLAXOSMITHKLINE, priority 2005, published 2008)
